Results on three molecules are retold here after patent US11299472B2, “Fumarate salt of (R)-3-(1-(2,3-dichloro-4-(pyrazin-2-yl)phenyl)-2,2,2- trifluoroethyl)-1-methyl-1-(1-methylpiperidin-4-yl) urea, methods of preparation, and uses thereof” (Helsinn Healthcare SA, priority 2017, dated 2022).

The test system of series [1] is Snord116+/− (Het) mice and wild-type (WT) littermates. The series can be described thus: Food intake after acute administration in Prader-Willi mouse model. The following applies: cabergoline 0.5 mg/kg single i.p., fasted 16 hours. The class given is in vivo. The source says:
The effect of HM04 fumarate salt on food intake behavior and glucose tolerance was investigated in the Snord116+/−(Het) mouse genetic model of Prader-Willi syndrome (Het mouse) compared to wild-type (WT) littermates. Since D2R agonists suppress food intake, the FDA approved D2R agonist cabergoline was used as an experimental control. Phenotypic characteristics of this PWS mouse model include hyperphagia, postnatal growth retardation, high ghrelin, and low growth hormone. Ding F., et al. SnoRNA Snord116 (Pwcr1/MBII-85) deletion causes growth deficiency and hyperphagia in mice. PloS one. 2008; 3(3):e1709. These PWS mice eat more frequently than WT littermates, particularly during the light cycle and are more motivated to work for food (more level presses) (data not shown).
Acute administration: Mice (3-, 7-, and 12-month-old) were fasted for 16 hours and then administered a single intraperitoneal injection of vehicle or vehicle containing HM04, cabergoline, or HM04 and cabergoline according to Table 8, below.
HM04 was dissolved in water for injection and cabergoline was dissolved in DMSO to provide a 5% DMSO/water solution for injection. Mice were then given free access to food, and cumulative food intake was measured at 1, 2, 4, 8, 12, and 24 hours post-dosing. […] Data was analyzed for significance using 2-way ANOVA, Bonferroni post hoc test (Graphpad Prism, Prism 5.0, San Diego, Calif.).

The nature of series [2]: Dog pharmacokinetic study, HM04 free base vs HM04 fumarate salt (Example 9). The series is classed as in vivo, male Beagle dogs. As for the experimental part:
The pharmacokinetics of HM04 in plasma of male Beagle dogs dosed with a single oral administration of 2 mg/kg HM04 formulated in a solution of 10% DMAC, 6% Solutol, and 84% PBS using either the HM04 free base or HM04 fumarate salt were compared. A comparison of the plasma concentration of HM04 (ng/mL) over time in dogs dosed orally with HM04 free base and HM04 fumarate salt is provided in FIG. 18. Bioavailability was calculated from a dose normalized ratio of the oral mean AUC to the intravenous mean AUC (AUCpo/AUCiv×Doseiv/Dosepo).

Series [3] is described as follows: Rat pharmacokinetic study, HM04 free base vs HM04 fumarate salt (Example 9). The class given is in vivo, male Sprague Dawley rats.
Series [4] can be described thus: GVS analysis (hygroscopicity). The class given is physicochemical. On the procedure:
For the GVS analysis, 15-20 mg of sample was loaded into an IgaSorp vapour sorption balance (Hiden Analytical Instruments). The sample was then dried by maintaining a 0% humidity environment until no further weight change was recorded. The sample was then subjected to a ramping profile from 0 to 90% RH at 10% RH increments, maintaining the sample at each step until equilibration had been attained (99% step completion). Upon reaching equilibrium, the % RH within the apparatus was ramped to the next step and the equilibration procedure repeated. After completion of the sorption cycle, the sample was dried using the same procedure. The weight change during the sorption/desorption cycles were then monitored, allowing for the hygroscopic nature of the sample to be determined.

The nature of series [5]: Rat pharmacokinetic study, HM04 free base vs HM04 fumarate salt (Example 9). The following applies: 3 mg/kg oral. The class given is in vivo, male Sprague Dawley rats. On the procedure: The pharmacokinetics of HM04 in plasma of male Sprague Dawley rats dosed with a single oral administration of 3 mg/kg HM04 (based on the weight of the free base) formulated in a solution of 10% DMAC, 6% Solutol, and 84% PBS using either the HM04 free base or HM04 fumarate salt were compared. Blood samples were withdrawn at set time intervals and plasma concentration of HM04 was measured by LC-MS/MS. A comparison of the plasma concentration of HM04 (ng/mL) over time in rats dosed orally with HM04 free base and HM04 fumarate salt is provided in FIG. 17.

Series [6] is described as follows: Dog pharmacokinetic study, HM04 free base vs HM04 fumarate salt (Example 9). The series is classed as in vivo, male Beagle dogs. This is another data set of the same source.
Series [7] in a line: Estimated aqueous solubility. The class given is physicochemical. The following applies: aqueous (water).
For series [8], the system named is ghrelin-induced increase of GH. Description: Ghrelin-induced increase of growth hormone in rats. The class given is in vivo. The following applies: after 15 μg/kg ghrelin i.v. On the procedure:
Rats were divided into four groups: 1) 1 ml/kg saline plus 10 ml/kg 0.5% CMC p.o. (n=6); 2) 15 μg/kg ghrelin i.v. plus 10 ml/kg 0.5% CMC p.o. (n=6); 3) 30 mg/kg HM04 fumarate salt p.o. 2 hours before 15 μg/kg ghrelin i.v. (n=6); 4) 10 mg/kg ghrelin antagonist R011 i.p. 30 minutes before 15 μg/kg ghrelin i.v. (n=6). Blood was collected as 100 μl samples at time 0 and at 15 minutes after ghrelin injection. Rats were anesthetized with 64.8 mg/kg sodium pentobarbital. A catheter filled with heparinized saline solution was inserted in the left femoral artery for blood collection and fitted with an extension tube, 1-mL sampling syringe, and a 3-way cock to allow excess blood to return.
Plasma levels of growth hormone (GH) were determined using Rat GH ELISA (Millipore, Catalog No. EZRMGH-45K). Measurements were performed in duplicate. […] One-way and two-way ANOVA test was used to compare differences between groups. All values are presented as mean±SEM. One-way ANOVA was performed followed by Turkey's post hoc test where significance was indicated by p values<0.05 or p values<0.01.

Where [9] appears, read: male, Beagle, plasma, 2 mg/kg oral, mean ± S.D., n=3.
The mark [10] stands for this setting: male, Sprague Dawley, plasma, mean ± S.D., n=3.

Ends that are not written are not given here. Where only a bound is given, the exact number is not on record here.

In the case of `C=CCN1C[C@H](C(=O)N(CCCN(C)C)C(=O)NCC)C[C@@H]2c3cccc4[nH]cc(c34)C[C@H]21` [Cabergoline, cabergoline, reference compound], the cumulative food intake entry in series [1] (7-month-old Het mice) and in series [1] (7-month-old WT mice) was “inhibited food intake” throughout.

In the case of `CN1CCC(N(C)C(=O)N[C@H](c2ccc(-c3cnccn3)c(Cl)c2Cl)C(F)(F)F)CC1` [HM04 free base, (R)-3-(1-(2,3-dichloro-4-(pyrazin-2-yl)phenyl)-2,2,2-trifluoroethyl)-1-methyl-1-(1-methylpiperidin-4-yl) Urea], the HM04 plasma concentration in series [2] (2 mg/kg oral, 0.25 hours, mean ± S.D., n=3) was found to be 8.94 ± 5.56 ng/mL; in series [2] (2 mg/kg oral, 0.50 hours, mean ± S.D., n=3), 49.40 ± 7.72 ng/mL; in series [2] (2 mg/kg oral, 2 hours, mean ± S.D., n=3) it was 74.05 ± 3.77 ng/mL; in series [3] (3 mg/kg oral, 0.25 hours, mean ± S.D., n=3), 24.2 ± 6.6 ng/mL; in series [3] (3 mg/kg oral, 4 hours, mean ± S.D., n=3), 25.0 ± 13.0 ng/mL; in series [5] (0.50 hours, mean ± S.D., n=3) it was 39.0 ± 5.2 ng/mL. The HM04 plasma concentration in series [5] (1 hour, mean ± S.D., n=3) is on record as 44.4 ± 6.0 ng/mL; in series [5] (2 hours, mean ± S.D., n=3), 35.7 ± 11.3 ng/mL; in series [5] (8 hours, mean ± S.D., n=3) it was 7.9 ± 5.8 ng/mL; in series [6] (2 mg/kg oral, 1 hour, mean ± S.D., n=3), 66.33 ± 4.25 ng/mL; in series [6] (2 mg/kg oral, 4 hours, mean ± S.D., n=3), 67.34 ± 6.27 ng/mL. Besides, the bioavailability in series [2] (male, Beagle, plasma, 2 mg/kg oral vs 1 mg/kg intravenous, dose normalized AUC ratio) was 59.4 ± 9.11%; in series [3] (male, Sprague Dawley, plasma, 3 mg/kg oral vs 3 mg/kg intravenous mean AUC) it was 22.2 ± 5.8%. The area under the curve AUC(0-t) was found to be 929 ± 142 ng·h/mL in series [2] (setting [9]) and 220 ± 57.2 ng·h/mL in series [5] (setting [10]). The Cmax in series [2] (setting [9]) is 74 ± 3.77 ng/mL; in series [3] (male, Sprague Dawley, plasma, 3 mg/kg oral, mean ± S.D., n=3), 44.4 ± 6 ng/mL. Moreover, the values for the Tmax in series [2] (setting [9]) and in series [5] (setting [10]) were 2 h and 1 h, respectively. The AUC in series [3] (male, Sprague Dawley, plasma, 3 mg/kg intravenous, three rats, read-out: mean AUC following intravenous administration) is 990 ± 24.6 ng·h/mL; in series [6] (male, Beagle, plasma, 1 mg/kg intravenous, three dogs, read-out: mean AUC following intravenous administration), 782 ± 364 ng·h/mL. In addition, the “hygroscopicity (GVS)” value in series [4] is given as “slightly hygroscopic”. Besides, the “weight gain (GVS)” value in series [4] (up to 70% relative humidity (RH)) is “approximately 1.5%”; in series [4] (up to 80% RH) it was “approximately 2%”. Further, the concentration at 24 hours in series [5] (male, Sprague Dawley, plasma, po, 3 mg/kg, 24 hours, N = 1 (two of three animals below level of quantification)) turned out to be 2.4 ng/mL. The concentration at 8 h in series [6] (male, Beagle, plasma, po, 2 mg/kg, 2 mg/kg oral, 8 hours, mean ± S.D., n=3) turned out to be 49.2 ± 10.2 ng/mL. Further, the concentration at 24 h in series [6] (male, Beagle, plasma, po, 2 mg/kg, 2 mg/kg oral, 24 hours, mean ± S.D., n=3) was determined as 6.61 ± 4.38 ng/mL. Further, in series [7], the solubility is under 2000 µg/mL.

Take “ghrelin: growth hormone-releasing peptide, injected i.v. to induce GH increase (GSSFLSPEHQRVQQRKESKKPPAKLQPR; ends and bridges not checked; UniProt Q9UBU3 24-51, looked up) [reference compound]”: in series [8], the “mean plasma GH concentration” value fell in the range of 90 to 120 ng/mL.
